Measurements reported in US20120220548A1, “Compositions and methods for treatment of virus-associated cancer cells” (priority 2011, published 2012).

How the values were obtained:
BCBL-1 cells = settings: 3 weeks
Method: Mice were injected with 2×10^7 BCBL-1 cells and were weighed as a function of time every week for 3 weeks, to assess tumor growth. […] The weight is shown on the ordinate and time in days on the abscissa.
Mice were injected with 2×10^7 BCBL-1 cells (a strain of PEL cells) and were weighed as a function of time every week for three weeks, to assess tumor growth. Weight was compared to control mice not receiving BCBL-1 cells.

[1] = test system: BCBL-1 primary effusion lymphoma (PEL) cells; experiment: rapamycin cell killing of BCBL-1 PEL cells in culture with or without oHA (relative cell viability); type: cell-based, human
Method: The cells used are the PEL strain known as body cavity-based lymphoma-1 (BCBL-l; diamonds and squares). The squares indicate data from cells to which oHA was added along with rapamycin.
Cell viability was assessed using both MTT and Trypan blue exclusion assays as described in Qin Z, et al. PLoS Pathog 2010; 6(1): e1000742. For MTT assays, a total of 5×10^3 PEL cells were incubated individual wells of a 96-well plate for 24 hours. Serial dilutions of paclitaxel, doxorubicin or oHAs were added and subsequently incubated in 1 mg/ml MTT solution (Sigma-Aldrich) at 37° C. for 3 hours. Thereafter, cells were incubated in 50% dimethylsulfoxide overnight and optical densities determined at 570 nm using a spectrophotometer (Thermo Labsystems, West Palm Beach, Fla., USA). For Trypan blue exclusion assays, cells were incubated with 0.4% Trypan blue (MP Biomedicals, Northbrook, Ill., USA) and observed under light microscopy. Relative cell viability was determined after assessment of at least 1000 cells per condition for each experiment using the following formula: (no. of live cells/no. of total cells for experimental conditions)/ (no. of live cells/no. of total cells for vehicle-treated control cells). […]

[2] = doxorubicin 0.2 mg/kg intraperitoneally

Row | Compound | effect on progress of lymphoma (weight gain) (BCBL-1 cells; doxorubicin 0.2 mg/kg i.p., oHA 0.5 mg/kg i.p.) | tumor-associated weight gain (BCBL-1 cells; [2]) [g] | tumor-associated weight gain from baseline weight of 25-28g (BCBL-1 cells; [2]) | survival (relative cell viability) ([1]; 1 nM rapamycin, this agent alone) | IC50 ([1]; Homo sapiens, BCBL1, read-out: concentration of rapamycin giving cell death of about half the cells, rapamycin alone) [µM]
1 | COc1cccc2c1C(=O)c1c(O)c3c(c(O)c1C2=O)C[C@@](O)(C(=O)CO)C[C@@H]3O[C@H]1C[C@H](N)[C@H](O)[C@H](C)O1 [doxorubicin] | only slightly reduced the increase in weight | 4 to 7 | approximately 35% |  | 
2 | CO[C@H]1C[C@@H]2CC[C@@H](C)[C@@](O)(O2)C(=O)C(=O)N2CCCC[C@H]2C(=O)O[C@H]([C@H](C)C[C@@H]2CC[C@@H](O)[C@H](OC)C2)CC(=O)[C@H](C)/C=C(\C)[C@@H](O)[C@@H](OC)C(=O)[C@H](C)C[C@H](C)/C=C/C=C/C=C/1C [rapamycin] |  |  |  | greater than 0.95 | 0.01 to 0.02
